Source: patent publication US12297296B2, “Nano small peptide and its use in preparation of drugs for treating and preventing fundus vascular diseases” (FUTU Biotech Co., Ltd., priority 2021, dated 2025)
Where a SMILES comes first, the peptide text is derived from it. [ ]: non-standard residue; d: D form. The star is where a group is joined. ξ: configuration not given here. Palmitoyl = CCCCCCCCCCCCCCCC(=O)*; ξF = NC(Cc1ccccc1)C(=O)O

Experiments:
OIR model mice [1] = test: Fundus angiogenesis in OIR model, Isolectin B4 confocal detection; format: in vivo, mouse; conditions: for percentage of abnormal blood vessels in the total retinal area (proportion of new blood vessels): 2 nmol injected into the vitreous on day 12, read on day 17
Protocol: Treatment group (OIR): After giving birth, 3-4 month old C57BL/6 mother mice were placed in an oxygen chamber with 75% oxygen together with 7 day old young mice, and the young mice and the mother mice were taken out on the 12th day of birth of the young mice. Immediately after the young mice were anesthetized, 2 nmol of FH, 2 nmol of FG, and 1 μg of Sema4D neutralizing antibody (BMA-12) (BMA-12, i.e., anti-Sema4D) were injected into the vitreous, and an equal volume of DMSO was used as a control. The young mice were then further raised in normal air for 5 days; the young mice were anesthetized on the 17th day of birth, and after cardiac perfusion with normal saline, the eyeballs were separated and then fixed, stained with Isolectin B4 overnight at 4° C., flatly spread on a glass slide, and photographed.
Control group (Normal): Young mice, grown with normoxia, were anesthetized on the 17th day of birth. After cardiac perfusion with normal saline, the eyeballs were taken out, and the retinas were peeled off and then fixed with 4% paraformaldehyde, stained with Isolectin B4 at 4° C. overnight, flatly spread on a glass slide, and photographed.
The results are shown in A in FIGS. 4A and 4B. Laser confocal was carried out to detect retinal angiogenesis, and ImageJ was carried out to calculate the ratio of retinal neovascularization clusters to the entire retinal area, that is, the proportion of new blood vessels. […] It can be seen from FIG. 4A that the treatment effect of FH is the best.

OIR model mice [2] = test: Evans blue leakage test, fundus vascular leakage; format: in vivo, mouse; conditions: 2 nmol intravitreal
[3] = test system: primary mouse brain microvascular endothelial cells; test: Endothelial cell migration (transwell experiment); format: cell-based; conditions: 20 μM, 24 h; for sSema4D-induced endothelial cell migration: sSema4D 1600 ng/mL
Protocol: The primary mouse brain microvascular endothelial cells were starved with 0.5% ECM for 4 to 6 h. The mouse brain microvascular endothelial cells were seeded in the upper layer of a 24-well transwell chamber (8 μm). 1% ECM medium containing FH (20 μM), FG (20 μM), and Sema4D neutralizing antibody (BMA-12) (2 μg/μL) (the concentration of sSema4D in the medium is 1600 ng/mL) was added to the lower chamber, and an equal volume of DMSO was added as control. The cells were incubated in a 5% CO2 incubator at 37° C. for 24 h. 24 h later, the cells on the bottom of the chamber were fixed with 4% paraformaldehyde and stained with crystal violet, and the endothelial cells that penetrated to the bottom of the chamber were counted under a microscope.

sSema4D [4] = biological target: T1, sSema4D (Mus musculus, UniProt O09126); test: CD spectra of nanoparticles before and after induction by sSema4D protein; format: physicochemical; set-up: the free Sema4D protein after enzyme cleavage of Sema4D, that is, the sSema4D protein purchased from R&D Systems Company; purchased R&D Systems; conditions: 20 μM; for CD secondary structure before induction by sSema4D protein: H2O containing 0.5% dimethyl sulfoxide, signal at 200 nm negative; for CD secondary structure after induction by sSema4D protein: signal at 200 nm positive, negative signal at 220 nm
T1 sequence (O09126 24-733 limits assumed): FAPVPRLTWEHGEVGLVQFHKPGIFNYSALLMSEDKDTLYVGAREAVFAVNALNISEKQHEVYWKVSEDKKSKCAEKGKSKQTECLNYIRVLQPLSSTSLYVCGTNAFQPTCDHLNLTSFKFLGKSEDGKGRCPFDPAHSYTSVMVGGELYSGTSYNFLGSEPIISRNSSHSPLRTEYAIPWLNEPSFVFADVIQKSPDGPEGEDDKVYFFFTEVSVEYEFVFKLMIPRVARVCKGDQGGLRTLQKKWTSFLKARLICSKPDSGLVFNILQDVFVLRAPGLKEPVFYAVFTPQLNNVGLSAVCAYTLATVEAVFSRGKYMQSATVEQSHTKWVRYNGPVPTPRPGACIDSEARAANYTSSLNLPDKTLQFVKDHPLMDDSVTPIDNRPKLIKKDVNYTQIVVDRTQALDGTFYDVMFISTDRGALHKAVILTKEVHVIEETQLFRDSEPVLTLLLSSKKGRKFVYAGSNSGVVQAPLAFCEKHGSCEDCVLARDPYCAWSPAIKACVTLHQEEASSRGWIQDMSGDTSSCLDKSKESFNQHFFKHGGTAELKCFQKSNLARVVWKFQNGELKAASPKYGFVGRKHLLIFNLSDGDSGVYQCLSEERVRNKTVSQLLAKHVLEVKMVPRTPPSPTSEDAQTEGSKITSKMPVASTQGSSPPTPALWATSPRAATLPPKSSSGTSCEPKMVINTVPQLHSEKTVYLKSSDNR
Protocol: First, FG and FH nanoparticle solutions with a concentration of 20 μM were prepared as follows. 0.01 mmol of FG (or FH) was weighed and dissolved in 1 mL of DMSO solution, and then diluted into 5 folds to a concentration of 2 mM, thus obtaining mother solution A. 10 μL of mother solution A was quickly added to 1 mL of water, and the resulting solution was then vortexed for 30 s to obtain a nanoparticle solution. Second, samples were made. 10 ul of FG (or FH) solution was added dropwise onto a copper mesh for 5 min, and the excess solution was removed with filter paper. 10 μL of uranyl acetate stain was added dropwise for 5 min, and the excess stain was removed with filter paper. Washing with 10 μl of deionized water was carried out once. The samples were dried in vacuum overnight. Finally, transmission electron microscopy observations were performed on an HT-7700 transmission electron microscope (Hitachi, Tokyo, Japan). Scale bar was 200 nm.
The CD spectra of FH and FG nanoparticles (20 μM) were collected at room temperature using a CD spectrometer (JASCO-1500, Tokyo, Japan) with an optical path length of 1 mm. Measurements were performed between 190 nm and 300 nm with a resolution of 1.0 nm at a scan speed of 300 nm/min. For each measurement, three spectra were collected and averaged.

sSema4D [5] = biological target: T1, sSema4D; test: sSema4D concentration in a simple medium system (ELISA); format: biochemical; set-up: the free Sema4D protein after enzyme cleavage of Sema4D, that is, the sSema4D protein purchased from R&D Systems Company; purchased R&D Systems; conditions: for sSema4D concentration: sSema4D 1600 ng/mL, peptides 20 μM, antibody 2 μg/μL
Protocol: The nano small peptides FH, FG, DMSO, and Sema4D neutralizing antibody (BMA-12) were added to the medium (the concentration of sSema4D in the medium was 1600 ng/mL) to ensure that the final concentration of FH and FG was 20 μM, and the final concentration of the Sema4D neutralizing antibody (BMA-12) (BMA-12, i.e., anti-Sema4D) was 2 μg/μL, an equal volume of DMSO was then added as a control, and culture plates were set still at 37° C. for 12, 24, 36, and 48 h, and the culture medium was collected, and the expression of Sema4D protein in the supernatant was detected using an ELISA kit (Shanghai Yuanmu Biotechnology Co., Ltd.).

## CCCCCCCCCCCCCCCC(=O)NC(Cc1ccccc1)C(=O)N[C@@H](Cc1ccccc1)C(=O)N[C@H](C(=O)N[C@@H](CC(C)C)C(=O)N[C@@H](CCCCN)C(=O)N[C@@H](CCCCN)C(=O)N[C@@H](CCC(N)=O)C(=O)N[C@@H](CCCCN)C(=O)N[C@@H](CCCNC(=N)N)C(=O)N1CCC[C@H]1C(=O)N[C@@H](CCCNC(=N)N)C(=O)N[C@@H](Cc1c[nH]cn1)C(=O)O)C(C)C (stereo in doubt) [FH, hexadecanoyl-FFVLK-KQKRPRH]
OIR model mice [1]
  percentage of abnormal blood vessels in the total retinal area (proportion of new blood vessels): reduce the percentage of abnormal blood vessels in the total retinal area
OIR model mice [1]; 2 nmol intravitreal
  treatment effect on fundus angiogenesis compared with Sema4D neutralizing antibody (BMA-12, 1 μg): comparable
  treatment effect on fundus angiogenesis, ranking among treatments (FIG. 4A): the best
OIR model mice [2]
  treatment effect on fundus vascular leakage compared with anti-Sema4D (1 μg): comparable
  vascular leakage of the fundus: can inhibit vascular leakage of the fundus
[3]
  inhibition of endothelial cell migration compared with Sema4D neutralizing antibody (BMA-12, 2 μg/μL): more effective
  sSema4D-induced endothelial cell migration: significantly inhibit
sSema4D [4]
  CD secondary structure before induction by sSema4D protein: random coil structure
  CD secondary structure after induction by sSema4D protein: transition to a β-sheet folded structure
sSema4D [5]; 24 h
  sSema4D concentration: can reduce the sSema4D concentration
sSema4D [5]; 36 h
  sSema4D concentration: can still reduce the sSema4D concentration
sSema4D [5]; within the same action time
  effect on sSema4D concentration compared with FG: better than that of FG

## CCCCCCCCCCCCCCCC(=O)NC(Cc1ccccc1)C(=O)N[C@@H](Cc1ccccc1)C(=O)N[C@H](C(=O)N[C@@H](CC(C)C)C(=O)N[C@@H](CCCCN)C(=O)N[C@@H](CCCCN)C(=O)N[C@@H](CC(N)=O)C(=O)N[C@@H](CCCCN)C(=O)N[C@@H](C)C(=O)N[C@@H](C)C(=O)N[C@@H](CCCCN)C(=O)NCC(=O)O)C(C)C (stereo partly shown) [FG] (Palmitoyl-[ξF]FVLKKNKAAKG-OH)
OIR model mice [1]
  percentage of abnormal blood vessels in the total retinal area (proportion of new blood vessels): reduce the percentage of abnormal blood vessels in the total retinal area
OIR model mice [1]; 2 nmol intravitreal
  treatment effect on fundus angiogenesis compared with Sema4D neutralizing antibody (BMA-12, 1 μg): comparable
OIR model mice [2]
  treatment effect on fundus vascular leakage compared with anti-Sema4D (1 μg): comparable
  vascular leakage of the fundus: can inhibit vascular leakage of the fundus
[3]
  inhibition of endothelial cell migration compared with Sema4D neutralizing antibody (BMA-12, 2 μg/μL): more effective
  sSema4D-induced endothelial cell migration: significantly inhibit
sSema4D [4]
  CD secondary structure before induction by sSema4D protein: random coil structure
  CD secondary structure after induction by sSema4D protein: transition to a β-sheet folded structure
sSema4D [5]; 24 h
  sSema4D concentration: can reduce the sSema4D concentration
sSema4D [5]; 36 h
  sSema4D concentration: can still reduce the sSema4D concentration
